Test results as given in ChEMBL document CHEMBL1201862, “PubChem BioAssay data set” (2004).
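Cultured in 96-well plates, cells were exposed to test compound for 48 hours across five concentrations. Here, GI50 denotes the concentration required for 50% inhibition of growth.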 The source made the active and inactive calls. Rule as the data show it: active = GI50 up to about 1.1 µM and inactive = higher.

How the values were obtained:
Test in all cases: DTP human tumour cell line panel, 48 h
A549 = test system: A549
SK-MEL-5 = test system: SK-MEL-5
A498 = test system: A498
KM12 = test system: KM12
LOX IMVI = test system: LOX IMVI
SK-OV-3 = test system: SK-OV-3
SK-MEL-28 = test system: SK-MEL-28
NCI-H226 = test system: NCI-H226
CCRF-CEM = test system: CCRF-CEM
DMS-273 = test system: DMS-273
HL-60 = test system: HL-60
UO-31 = test system: UO-31
HOP-62 = test system: HOP-62
SK-MEL-2 = test system: SK-MEL-2
K562 = test system: K562
OVCAR-5 = test system: OVCAR-5
NCI-H522 = test system: NCI-H522
DMS-114 = test system: DMS-114
IGROV-1 = test system: IGROV-1
LXFL 529 = test system: LXFL 529
EKVX = test system: EKVX
SNB-19 = test system: SNB-19
UACC-62 = test system: UACC-62
OVCAR-4 = test system: OVCAR-4
SNB-78 = test system: SNB-78
UACC-257 = test system: UACC-257
RPMI-8226 = test system: RPMI-8226
HCT-116 = test system: HCT-116
DLD-1 = test system: DLD-1
ACHN = test system: ACHN
SF-295 = test system: SF-295
NCI-H23 = test system: NCI-H23
TK-10 = test system: TK-10
HT-29 = test system: HT-29
786-0 = test system: 786-0
HCT-15 = test system: HCT-15
M14 = test system: M14
RXF 393 = test system: RXF 393
MOLT-4 = test system: MOLT-4
KM-20L2 = test system: KM-20L2
SF-539 = test system: SF-539
COLO 205 = test system: COLO 205
HCC 2998 = test system: HCC 2998
SF-268 = test system: SF-268
U-251 = test system: U-251
HOP-18 = test system: HOP-18
OVCAR-8 = test system: OVCAR-8
Malme-3M = test system: Malme-3M
HOP-92 = test system: HOP-92
CAKI-1 = test system: CAKI-1
SW-620 = test system: SW-620
NCI-H460 = test system: NCI-H460
M19-MEL = test system: M19-MEL
SN12C = test system: SN12C
SNB-75 = test system: SNB-75
SR = test system: SR
OVCAR-3 = test system: OVCAR-3
XF498 = test system: XF498

Measured: GI50

CC(C)N(C(C)C)P(OCCC#N)OC1CC(n2cnc3c(=O)[nH]cnc32)OC1COC(=O)NCCCCCCNC(=O)OC(C)(C)c1ccc(-c2ccccc2)cc1 (stereo not given)
22.6 µM: HCT-15
inactive: A549 39.4 µM | SK-MEL-5 24.8 µM | A498 > 100 µM | KM12 18.7 µM | LOX IMVI 18.2 µM | SK-OV-3 39.4 µM | SK-MEL-28 34.3 µM | NCI-H226 23.9 µM | CCRF-CEM 18.5 µM | DMS-273 17.4 µM | HL-60 14.7 µM | UO-31 17.5 µM | HOP-62 23.4 µM | SK-MEL-2 30.4 µM | K562 13.7 µM | OVCAR-5 > 100 µM | NCI-H522 15.6 µM | DMS-114 21.8 µM | IGROV-1 17 µM | LXFL 529 17.5 µM | EKVX > 100 µM | SNB-19 21.7 µM | UACC-62 18.4 µM | OVCAR-4 19.7 µM | SNB-78 30.5 µM | UACC-257 15.2 µM | RPMI-8226 25.7 µM | HCT-116 39.1 µM | DLD-1 43.3 µM | ACHN 38.7 µM | SF-295 52.1 µM | NCI-H23 26.1 µM | TK-10 24.2 µM | HT-29 43.2 µM | 786-0 23 µM | M14 18.4 µM | RXF 393 27.7 µM | MOLT-4 18.7 µM | KM-20L2 43.2 µM | SF-539 24 µM | COLO 205 17.4 µM | HCC 2998 25.5 µM | SF-268 29.6 µM | U-251 21.7 µM | HOP-18 92 µM | OVCAR-8 34.4 µM | Malme-3M 32.2 µM | HOP-92 35.9 µM | CAKI-1 39.4 µM | SW-620 34.1 µM | NCI-H460 22.9 µM | M19-MEL 21.5 µM | SN12C 23.7 µM | SNB-75 24.3 µM

NC(CCC(=O)NC(CSC(=O)N(O)c1ccc(Br)cc1)C(=O)NCC(=O)O)C(=O)O (stereo not given)
77.6 µM: HCT-15
inactive: SK-MEL-5 > 100 µM | A498 > 100 µM | LOX IMVI 61.5 µM | SK-OV-3 29.2 µM | NCI-H226 > 100 µM | CCRF-CEM > 100 µM | DMS-273 > 100 µM | HL-60 > 100 µM | UO-31 90.4 µM | K562 76.2 µM | NCI-H522 > 100 µM | DMS-114 > 100 µM | IGROV-1 > 100 µM | LXFL 529 46.9 µM | SNB-19 > 100 µM | UACC-62 > 100 µM | SNB-78 > 100 µM | RPMI-8226 66.4 µM | HCT-116 88.5 µM | DLD-1 86.5 µM | ACHN 25.1 µM | TK-10 > 100 µM | M14 30 µM | SR 81.7 µM | KM-20L2 35.2 µM | COLO 205 > 100 µM | HOP-18 38.2 µM | OVCAR-8 > 100 µM | Malme-3M > 100 µM | CAKI-1 70.3 µM | M19-MEL > 100 µM

Cc1cc(C)n(-c2nsc3ccccc23)n1
> 100 µM: HCT-15
inactive: A549 > 100 µM | SK-MEL-5 > 100 µM | KM12 > 100 µM | LOX IMVI > 100 µM | SK-MEL-28 > 100 µM | CCRF-CEM > 100 µM | DMS-273 > 100 µM | HL-60 > 100 µM | UO-31 > 100 µM | HOP-62 > 100 µM | SK-MEL-2 > 100 µM | K562 89.1 µM | OVCAR-5 > 100 µM | DMS-114 > 100 µM | IGROV-1 > 100 µM | LXFL 529 > 100 µM | EKVX 91.4 µM | SNB-19 > 100 µM | UACC-62 > 100 µM | OVCAR-4 > 100 µM | OVCAR-3 > 100 µM | SNB-78 > 100 µM | UACC-257 > 100 µM | RPMI-8226 > 100 µM | HCT-116 > 100 µM | ACHN > 100 µM | NCI-H23 > 100 µM | TK-10 > 100 µM | HT-29 > 100 µM | M14 > 100 µM | SR > 100 µM | RXF 393 > 100 µM | MOLT-4 > 100 µM | KM-20L2 > 100 µM | SF-539 > 100 µM | COLO 205 > 100 µM | HCC 2998 > 100 µM | SF-268 > 100 µM | U-251 > 100 µM | HOP-18 15.8 µM | OVCAR-8 > 100 µM | HOP-92 80.5 µM | SW-620 > 100 µM | NCI-H460 > 100 µM | M19-MEL > 100 µM | SN12C > 100 µM | SNB-75 26.9 µM

COc1cc2cc3c4c(cc(OC)c(OC)c4c2cc1OC)CCN3C(=O)OCCBr
active: NCI-H226 0.259 µM
inactive: A549 28 µM | SK-MEL-5 53.1 µM | A498 19.8 µM | KM12 60.7 µM | LOX IMVI 32.7 µM | SK-OV-3 > 100 µM | SK-MEL-28 > 100 µM | XF498 > 100 µM | CCRF-CEM 20.6 µM | DMS-273 50.2 µM | HL-60 39.1 µM | UO-31 > 100 µM | SK-MEL-2 > 100 µM | OVCAR-5 > 100 µM | NCI-H522 37.6 µM | IGROV-1 > 100 µM | EKVX 10.1 µM | SNB-19 > 100 µM | UACC-62 60.4 µM | OVCAR-3 > 100 µM | SNB-78 > 100 µM | UACC-257 > 100 µM | HCT-116 50.9 µM | DLD-1 45.5 µM | ACHN 50.9 µM | SF-295 > 100 µM | NCI-H23 81.7 µM | TK-10 > 100 µM | HT-29 50.1 µM | 786-0 55.8 µM | SR 18.7 µM | RXF 393 42.5 µM | MOLT-4 27.8 µM | KM-20L2 43.4 µM | SF-539 22.4 µM | COLO 205 78 µM | HCC 2998 42.3 µM | SF-268 > 100 µM | U-251 > 100 µM | OVCAR-8 > 100 µM | Malme-3M > 100 µM | HOP-92 39.1 µM | CAKI-1 41.9 µM | SW-620 60.8 µM | NCI-H460 33.2 µM | M19-MEL 81.8 µM | SN12C 45 µM | SNB-75 46 µM
60 µM: HCT-15
